Experiment [1] has as its target T1, PTPN2 (i.e., TC-PTP) (Homo sapiens, UniProt P17706).
T1 sequence (P17706 1-415): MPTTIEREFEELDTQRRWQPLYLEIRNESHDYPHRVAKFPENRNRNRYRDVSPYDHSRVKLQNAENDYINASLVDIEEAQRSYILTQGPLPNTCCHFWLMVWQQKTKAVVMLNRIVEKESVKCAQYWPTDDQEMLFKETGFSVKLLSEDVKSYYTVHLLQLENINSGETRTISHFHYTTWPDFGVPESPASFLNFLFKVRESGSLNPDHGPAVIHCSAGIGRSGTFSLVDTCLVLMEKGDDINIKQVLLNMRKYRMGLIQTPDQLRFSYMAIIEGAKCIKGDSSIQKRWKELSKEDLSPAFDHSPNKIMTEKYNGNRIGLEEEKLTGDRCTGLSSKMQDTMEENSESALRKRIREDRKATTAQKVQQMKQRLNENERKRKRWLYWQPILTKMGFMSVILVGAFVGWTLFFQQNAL
The experiment can be described thus: Phosphatase activity assay (DiFMUP substrate), PTPN2. The settings on record: compounds binned ≤1 uM or >1 uM. It counts as biochemical. The gist of the method: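 Enzyme (e.g. PTPN2 0.025 ng/ul) mixed about 2 min with compound at 10 serial concentrations in 50 mM HEPES pH 7.5, 150 mM NaCl, 0.5 mM EDTA, 1 mM DTT, 0.001% Tween-20 at room temperature. DiFMUP added at each enzyme's Km (about 45 μM for PTPN2). DiFMU fluorescence (ex 360/em 450 nm) followed 15-30 min; IC50 from 4-parameter fit of rates.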

In experiment [2] the target is T2, PTPN1 (i.e., PTP1B) (Homo sapiens, UniProt P18031).
T2 sequence (P18031 1-435): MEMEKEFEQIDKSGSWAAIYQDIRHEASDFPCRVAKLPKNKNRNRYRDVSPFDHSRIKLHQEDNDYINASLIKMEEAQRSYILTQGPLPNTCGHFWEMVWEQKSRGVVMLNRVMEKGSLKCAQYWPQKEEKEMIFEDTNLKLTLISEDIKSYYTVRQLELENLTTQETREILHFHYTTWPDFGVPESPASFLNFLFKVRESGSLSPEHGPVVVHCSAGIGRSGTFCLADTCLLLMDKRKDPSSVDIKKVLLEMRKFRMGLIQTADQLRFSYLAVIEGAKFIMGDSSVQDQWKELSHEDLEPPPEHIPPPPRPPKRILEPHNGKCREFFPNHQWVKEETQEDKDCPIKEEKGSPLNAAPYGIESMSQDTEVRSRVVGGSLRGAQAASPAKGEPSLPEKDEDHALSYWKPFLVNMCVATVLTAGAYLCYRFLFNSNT
The experiment can be described thus: Phosphatase activity assay (DiFMUP substrate), PTP1B. It counts as biochemical. The note with it: compounds binned ≤1 uM or >1 uM. The gist of the method: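 RT, HEPES pH 7.5 buffer with DTT/Tween-20. 10-point inhibitor series premixed ~2 min with enzyme (PTPN2 0.025 ng/ul). Start with DiFMUP at enzyme Km (~45 μM for PTPN2). Read DiFMU ex360/em450 continuously 15–30 min; initial rate vs concentration, 4-parameter fit → IC50.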

As a reminder, the IC50 is the concentration that gives 50% inhibition.

For `CC(C)CCS(=O)(=O)N1CC=C(c2ccc(O)c(N3CC(=O)NS3(=O)=O)c2F)C1` [Compound 338, 5-(2-fluoro-6-hydroxy-3-(1-(isopentylsulfonyl)-2,5-dihydro-1H-pyrrol-3-yl)phenyl)-1,2,5-thiadiazolidin-3-one 1,1-dioxide], the IC50 in experiment [1] and in experiment [2] was not above 1 µM each time.
Regarding `O=C1CN(c2c(O)ccc(-c3cc(CCC4CCC4)n[nH]3)c2F)S(=O)(=O)N1` [Compound 339, 5-(3-(3-(2-cyclobutylethyl)-1H-pyrazol-5-yl)-2-fluoro-6-hydroxyphenyl)-1,2,5-thiadiazolidin-3-one 1,1-dioxide], the half-maximal inhibitory concentration (IC50) in experiment [1] and in experiment [2] was not above 1 µM throughout.
Take `Cc1cc(-c2ccc(O)c(N3CC(=O)NS3(=O)=O)c2F)nn1C1CC1` [Compound 340, 5-(3-(1-cyclopropyl-5-methyl-1H-pyrazol-3-yl)-2-fluoro-6-hydroxyphenyl)-1,2,5-thiadiazolidin-3-one 1,1-dioxide]: the half-inhibitory concentration (IC50) in experiment [1] and in experiment [2] was not above 1 µM each time.
Turning to `O=C1CN(c2c(O)ccc(-c3cnn(C4CCC(C(F)(F)F)CC4)c3)c2F)S(=O)(=O)N1` (stereo not drawn) [Compound 341, 5-(2-fluoro-6-hydroxy-3-(1-(4-(trifluoromethyl)cyclohexyl)-1H-pyrazol-4-yl)phenyl)-1,2,5-thiadiazolidin-3-one 1,1-dioxide], the IC50 in experiment [1] and in experiment [2] was not above 1 µM in each case.
For `O=C1CN(c2c(O)ccc(-c3cnn(S(=O)(=O)C4CC4)c3)c2F)S(=O)(=O)N1` [Compound 342, 5-(3-(1-(cyclopropylsulfonyl)-1H-pyrazol-4-yl)-2-fluoro-6-hydroxyphenyl)-1,2,5-thiadiazolidin-3-one 1,1-dioxide], the IC50 in experiment [1] and in experiment [2] was not above 1 µM in each case.
For the compound `O=C1CN(c2c(O)ccc(-c3cc(N4CCCC4)n[nH]3)c2F)S(=O)(=O)N1` [Compound 343, 5-(2-fluoro-6-hydroxy-3-(3-(pyrrolidin-1-yl)-1H-pyrazol-5-yl)phenyl)-1,2,5-thiadiazolidin-3-one 1,1-dioxide], the IC50 in experiment [1] and in experiment [2] was not above 1 µM in each case.
Consider `O=C1CN(c2c(O)ccc(-c3cc(N4CCCOCC4)n[nH]3)c2F)S(=O)(=O)N1` [Compound 344, 5-(3-(3-(1,4-oxazepan-4-yl)-1H-pyrazol-5-yl)-2-fluoro-6-hydroxyphenyl)-1,2,5-thiadiazolidin-3-one 1,1-dioxide], for which the 50% inhibitory concentration (IC50) in experiment [1] and in experiment [2] was not above 1 µM in each case.
As to `Cn1nc(-c2ccc(O)c(N3CC(=O)NS3(=O)=O)c2F)cc1C1(N)CC1` [Compound 345, 5-(3-(5-(1-aminocyclopropyl)-1-methyl-1H-pyrazol-3-yl)-2-fluoro-6-hydroxyphenyl)-1,2,5-thiadiazolidin-3-one 1,1-dioxide], the half-maximal inhibitory concentration (IC50) in experiment [1] and in experiment [2] was not above 1 µM in each case.
Turning to `COc1ccccc1-n1cnc(-c2ccc(O)c(N3CC(=O)NS3(=O)=O)c2F)c1` [Compound 346, 5-(2-fluoro-6-hydroxy-3-(1-(2-methoxyphenyl)-1H-imidazol-4-yl)phenyl)-1,2,5-thiadiazolidin-3-one 1,1-dioxide], the IC50 in experiment [1] and in experiment [2] was not above 1 µM throughout.
Regarding `O=C1CN(c2c(O)ccc(-c3ncc(C4CC4)[nH]3)c2F)S(=O)(=O)N1` [Compound 347, 5-(3-(5-cyclopropyl-1H-imidazol-2-yl)-2-fluoro-6-hydroxyphenyl)-1,2,5-thiadiazolidin-3-one 1,1-dioxide], the IC50 in experiment [1] and in experiment [2] was not above 1 µM each time.
For the compound `COc1ccc(-n2cnc(-c3ccc(O)c(N4CC(=O)NS4(=O)=O)c3F)c2)cc1` [Compound 348, 5-(2-fluoro-6-hydroxy-3-(1-(4-methoxyphenyl)-1H-imidazol-4-yl)phenyl)-1,2,5-thiadiazolidin-3-one 1,1-dioxide], the IC50 in experiment [1] and in experiment [2] was not above 1 µM in each case.
Turning to `N#CCn1nc(-c2ccc(O)c(N3CC(=O)NS3(=O)=O)c2F)cc1C1CC1` [Compound 349, 2-(5-cyclopropyl-3-(3-(1,1-dioxido-4-oxo-1,2,5-thiadiazolidin-2-yl)-2-fluoro-4-hydroxyphenyl)-1H-pyrazol-1-yl)acetonitrile], the IC50 in experiment [1] and in experiment [2] was not above 1 µM each time.
On to `CCC(CC)n1cnc(-c2ccc(O)c(N3CC(=O)NS3(=O)=O)c2F)c1` [Compound 350, 5-(2-fluoro-6-hydroxy-3-(1-(pentan-3-yl)-1H-imidazol-4-yl)phenyl)-1,2,5-thiadiazolidin-3-one 1,1-dioxide], for which the concentration for half-maximal inhibition (IC50) in experiment [1] and in experiment [2] was not above 1 µM each time.
Turning to `O=C1CN(c2c(O)ccc(-c3cnn(C4CCCOC4)c3)c2F)S(=O)(=O)N1` (stereo not drawn) [Compound 351, 5-(2-fluoro-6-hydroxy-3-(1-(tetrahydro-2H-pyran-3-yl)-1H-pyrazol-4-yl)phenyl)-1,2,5-thiadiazolidin-3-one 1,1-dioxide], the 50% inhibitory concentration (IC50) in experiment [1] and in experiment [2] was not above 1 µM in each case.
As for `O=C1CN(c2c(O)ccc(-c3cc(C#CC4CC4)n[nH]3)c2F)S(=O)(=O)N1` [Compound 352, 5-(3-(3-(cyclopropylethynyl)-1H-pyrazol-5-yl)-2-fluoro-6-hydroxyphenyl)-1,2,5-thiadiazolidin-3-one 1,1-dioxide], the half-maximal inhibitory concentration (IC50) in experiment [1] and in experiment [2] was not above 1 µM in each case.
Consider `O=C1CN(c2c(O)ccc(C3CCN(C4CC4)CC3)c2F)S(=O)(=O)N1` [Compound 353, 5-(3-(1-cyclopropylpiperidin-4-yl)-2-fluoro-6-hydroxyphenyl)-1,2,5-thiadiazolidin-3-one 1,1-dioxide], for which the 50% inhibitory concentration (IC50) in experiment [1] and in experiment [2] was not above 1 µM throughout.
As for `CC#Cc1cc(-c2ccc(O)c(N3CC(=O)NS3(=O)=O)c2F)[nH]n1` [Compound 354, 5-(2-fluoro-6-hydroxy-3-(3-(prop-1-yn-1-yl)-1H-pyrazol-5-yl)phenyl)-1,2,5-thiadiazolidin-3-one 1,1-dioxide], the IC50 in experiment [1] and in experiment [2] was not above 1 µM throughout.
With `O=C1CN(c2c(O)ccc(C3=CCN(S(=O)(=O)C4CC4)CC3)c2F)S(=O)(=O)N1` [Compound 355, 5-(3-(1-(cyclopropylsulfonyl)-1,2,3,6-tetrahydropyridin-4-yl)-2-fluoro-6-hydroxyphenyl)-1,2,5-thiadiazolidin-3-one 1,1-dioxide], the IC50 in experiment [1] and in experiment [2] was not above 1 µM each time.
Regarding `O=C1CN(c2c(O)ccc(-c3cc(N4CC(c5ccccc5)C4)n[nH]3)c2F)S(=O)(=O)N1` [Compound 356, 5-(2-fluoro-6-hydroxy-3-(3-(3-phenylazetidin-1-yl)-1H-pyrazol-5-yl)phenyl)-1,2,5-thiadiazolidin-3-one 1,1-dioxide], the half-inhibitory concentration (IC50) in experiment [1] and in experiment [2] was not above 1 µM in each case.
With `N#C[C@H]1CC[C@@H](n2cnc(-c3ccc(O)c(N4CC(=O)NS4(=O)=O)c3F)c2)CC1` [Compound 357, (1s,4s)-4-(4-(3-(1,1-dioxido-4-oxo-1,2,5-thiadiazolidin-2-yl)-2-fluoro-4-hydroxyphenyl)-1H-imidazol-1-yl)cyclohexane-1-carbonitrile], the IC50 in experiment [1] and in experiment [2] was not above 1 µM in each case.
Take `Cc1cc(O)c(N2CC(=O)NS2(=O)=O)cc1-c1cnn(C)c1` [Compound 358, 5-(2-hydroxy-4-methyl-5-(1-methyl-1H-pyrazol-4-yl)phenyl)-1,2,5-thiadiazolidin-3-one 1,1-dioxide]: the IC50 in experiment [1] and in experiment [2] was more than 1 µM in each case.

(Values after US20240398828A1, “HETERO-ATOM CONTAINING COMPOUNDS AND USES THEREOF” (Kumquat Biosciences Inc., priority 2021, published 2024).)
